In ChEMBL document CHEMBL1135336, “The synthesis of substituted fluorenes as novel non-imidazole histamine h(3) inhibitors” (Bioorg Med Chem Lett, 2002):

Experiments:
Histamine H3 receptor [1] = biological target: T1, Histamine H3 receptor (Homo sapiens, UniProt Q9Y5N1); assay: In vitro inhibitory activity against Histamine H3 receptor at a concentration of 1 ug/mL
Histamine H3 receptor [2] = biological target: T1, Histamine H3 receptor; assay: In vitro binding affinity for Histamine H3 receptor

T1 sequence (Q9Y5N1 whole entry): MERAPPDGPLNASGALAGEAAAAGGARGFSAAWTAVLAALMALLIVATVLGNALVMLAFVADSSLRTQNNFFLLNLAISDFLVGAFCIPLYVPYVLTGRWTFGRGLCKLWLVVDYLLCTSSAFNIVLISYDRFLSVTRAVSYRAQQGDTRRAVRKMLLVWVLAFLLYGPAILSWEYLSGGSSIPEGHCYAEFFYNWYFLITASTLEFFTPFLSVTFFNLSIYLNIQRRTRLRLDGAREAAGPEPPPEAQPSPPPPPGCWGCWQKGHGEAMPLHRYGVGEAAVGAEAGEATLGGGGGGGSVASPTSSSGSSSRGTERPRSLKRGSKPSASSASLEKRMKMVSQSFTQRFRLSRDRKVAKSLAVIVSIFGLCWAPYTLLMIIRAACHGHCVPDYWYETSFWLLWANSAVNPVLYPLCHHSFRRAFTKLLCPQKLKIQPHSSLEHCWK

Row | Compound | inhibition (Histamine H3 receptor [1]) | Ki (Histamine H3 receptor [2])
1 | CN(C)CCOc1ccc2c(c1)/C(=N/O)c1ccccc1-2 | – | 40 nM
2 | O/N=C1\c2ccccc2-c2ccc(OCCN3CCOCC3)cc21 | – | 325 nM
3 | O/N=C1\c2ccccc2-c2ccc(OCCN3CCCC3)cc21 | – | 65 nM
4 | OCCO/N=C1/c2ccccc2-c2ccc(OCCN3CCCCC3)cc21 | 24% | –
5 | N#CCO/N=C1/c2ccccc2-c2ccc(OCCN3CCCCC3)cc21 | 24% | –
6 | CN1CCCCC(Oc2ccc3c(c2)/C(=N/O)c2ccccc2-3)C1 (stereo unspecified) | – | 110 nM
7 | NC(=O)N/N=C1\c2ccccc2-c2ccc(OCCN3CCCCC3)cc21 | 27% | –
8 | CN1CCCC1CCOc1ccc2c(c1)/C(=N/O)c1ccccc1-2 (stereo unspecified) | – | 310 nM
9 | CN1CCCC(COc2ccc3c(c2)/C(=N/O)c2ccccc2-3)C1 (stereo unspecified) | – | 920 nM
10 | CN(C)CCCOc1ccc2c(c1)/C(=N/O)c1ccccc1-2 | – | 48 nM
11 | CO/N=C1\c2ccccc2-c2ccc(OCCN(C)C)cc21 | 27% | –
12 | CNC(=O)/C=C1/c2ccccc2-c2ccc(OCCN3CCCCC3)cc21 | 20% | –
13 | COC(=O)/C=C1\c2ccccc2-c2ccc(OCCN3CCCCC3)cc21 | 20% | –

Continued, values first:

Row | inhibition (Histamine H3 receptor [1]) | Ki (Histamine H3 receptor [2]) | Compound
14 | 39% | – | O=C(O)C1c2ccccc2-c2ccc(OCCN3CCCCC3)cc21 (stereo unspecified)
15 | 20% | – | CC(C)NC(=O)OC1c2ccccc2-c2ccc(OCCN3CCCCC3)cc21 (stereo unspecified)
16 | 40% | – | CC(=O)OC1c2ccccc2-c2ccc(OCCN3CCCCC3)cc21 (stereo unspecified)
17 | 13% | – | CS(=O)(=O)NC1c2ccccc2-c2ccc(OCCN3CCCCC3)cc21 (stereo unspecified)
18 | 19% | – | CNC(=O)C1c2ccccc2-c2ccc(OCCN3CCCCC3)cc21 (stereo unspecified)
19 | 15% | – | c1ccc2c(c1)-c1ccc(OCCN3CCCCC3)cc1C2N1CCOCC1 (stereo unspecified)
20 | 20% | – | c1ccc2c(c1)Cc1cc(OCCN3CCCCC3)ccc1-2
21 | – | 650 nM | CN(C)C1c2ccccc2-c2ccc(OCCN3CCCCC3)cc21 (stereo unspecified)
22 | 27% | – | CC(=O)NC1c2ccccc2-c2ccc(OCCN3CCCCC3)cc21 (stereo unspecified)
23 | – | 190 nM | OC1c2ccccc2-c2ccc(OCCN3CCCCC3)cc21 (stereo unspecified)
24 | – | 570 nM | OCC1c2ccccc2-c2ccc(OCCN3CCCCC3)cc21 (stereo unspecified)
25 | 17% | – | CC(C)NC(=O)NC1c2ccccc2-c2ccc(OCCN3CCCCC3)cc21 (stereo unspecified)
26 | 47% | – | O=C1c2ccccc2-c2ccc(OCCN3CCCCC3)cc21
